Source: ChEMBL document CHEMBL5523738, “Lipid Trolling to Optimize A3 Adenosine Receptor-Positive Allosteric Modulators (PAMs)” (J Med Chem, 2024)
The source made the active and inactive calls. No cut-off for these calls is given here.

How the values were obtained:
[1] = biological target: Kappa-type opioid receptor (Homo sapiens) (UniProt P41145); assay: Binding affinity to KOR (unknown origin)
[2] = biological target: 5-hydroxytryptamine receptor 5A (Homo sapiens) (UniProt P47898); assay: Binding affinity to 5-HT5A (unknown origin)
[3] = biological target: T1, Adenosine receptor A3 (Homo sapiens) (UniProt P0DMS8); assay: Positive allosteric modulation of human A3 adenosine receptor transfected in HEK293 cell membranes assessed as slow down of [125I]I-AB-MECA dissociation rate at 10 uM preincubated with radioligand for 3 hrs followed by NECA and compound addition and measured after 60 mins by gamma counter method; settings: Membrane, filed as positive allosteric modulator
T1 sequence (whole entry): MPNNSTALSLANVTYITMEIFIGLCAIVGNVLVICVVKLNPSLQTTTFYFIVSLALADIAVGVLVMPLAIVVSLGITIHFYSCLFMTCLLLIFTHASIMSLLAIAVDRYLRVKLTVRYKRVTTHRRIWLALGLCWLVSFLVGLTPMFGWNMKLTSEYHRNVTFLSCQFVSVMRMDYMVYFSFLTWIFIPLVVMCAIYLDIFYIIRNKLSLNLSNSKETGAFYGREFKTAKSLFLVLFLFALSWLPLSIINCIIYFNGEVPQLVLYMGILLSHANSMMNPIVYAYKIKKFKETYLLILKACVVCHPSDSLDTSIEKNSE

[4] = biological target: 5-hydroxytryptamine receptor 3A (Homo sapiens) (UniProt P46098); assay: Binding affinity to 5-HT3 (unknown origin)
[5] = biological target: T1, Adenosine receptor A3 (Homo sapiens); assay: Positive allosteric modulation of human A3 adenosine receptor transfected in HEK293 cell membranes assessed as potentiation of 5-(2-chloro-6-((3-iodobenzyl)amino)-9H-purin-9-yl)-3,4-dihydroxy-N-methyltetrahydrofuran-2-carboxamide induced [35S]GTP-gammaS binding by measuring fold increase in agonist …; settings: Membrane, filed as positive allosteric modulator, dose 1.0 µM, time 3.0 hrs
[6] = biological target: 5-hydroxytryptamine receptor 1E (Homo sapiens) (UniProt P28566); assay: Binding affinity to 5-HT1E (unknown origin)
[7] = biological target: Beta-2 adrenergic receptor (Homo sapiens) (UniProt P07550); assay: Binding affinity to beta2 adrenergic receptor (unknown origin)
[8] = biological target: Alpha-1D adrenergic receptor (Homo sapiens) (UniProt P25100); assay: Binding affinity to alpha1D adrenergic receptor (unknown origin)
Alpha-1D adrenergic receptor (Homo sapiens), sequence (P25100 whole entry): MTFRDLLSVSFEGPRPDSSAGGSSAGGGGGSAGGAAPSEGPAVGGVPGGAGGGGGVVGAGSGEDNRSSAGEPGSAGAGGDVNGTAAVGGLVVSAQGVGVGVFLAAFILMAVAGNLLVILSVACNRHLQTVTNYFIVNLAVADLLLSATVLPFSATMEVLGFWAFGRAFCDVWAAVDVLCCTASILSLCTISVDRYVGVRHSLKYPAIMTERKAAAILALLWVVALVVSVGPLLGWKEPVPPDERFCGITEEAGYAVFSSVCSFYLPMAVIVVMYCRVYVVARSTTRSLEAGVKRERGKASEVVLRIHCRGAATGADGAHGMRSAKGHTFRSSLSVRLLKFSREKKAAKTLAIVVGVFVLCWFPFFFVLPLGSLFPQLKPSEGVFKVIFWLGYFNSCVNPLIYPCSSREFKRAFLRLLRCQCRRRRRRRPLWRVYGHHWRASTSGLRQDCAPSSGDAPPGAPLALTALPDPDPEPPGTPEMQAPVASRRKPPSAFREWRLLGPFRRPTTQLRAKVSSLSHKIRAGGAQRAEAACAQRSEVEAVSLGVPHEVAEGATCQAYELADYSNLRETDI

[9] = biological target: Adenosine receptor A1 (Homo sapiens) (UniProt P30542); assay: Positive allosteric modulation of human A1 adenosine receptor transfected in HEK293 cells assessed as potentiation of […] induced inhibition of cAMP formation at 3 uM; assay type: functional, cell-based
Adenosine receptor A1 (Homo sapiens), sequence (P30542 whole entry): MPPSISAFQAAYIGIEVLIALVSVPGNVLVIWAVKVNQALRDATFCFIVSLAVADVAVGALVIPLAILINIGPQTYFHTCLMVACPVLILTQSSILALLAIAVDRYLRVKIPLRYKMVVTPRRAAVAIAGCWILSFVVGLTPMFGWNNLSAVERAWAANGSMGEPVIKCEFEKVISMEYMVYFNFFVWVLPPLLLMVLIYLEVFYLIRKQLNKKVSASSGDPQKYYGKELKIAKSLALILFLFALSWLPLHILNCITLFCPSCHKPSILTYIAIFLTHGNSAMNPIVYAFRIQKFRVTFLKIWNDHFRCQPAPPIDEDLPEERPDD

[10] = biological target: Muscarinic acetylcholine receptor M1 (Homo sapiens) (UniProt P11229); assay: Binding affinity to M1 receptor (unknown origin)
[11] = biological target: GABA-A receptor; anion channel (Homo sapiens) (UniProt P14867+P47870+P18507+P28472+P48169+Q99928+Q9UN88+P34903+O00591+O14764+Q8N1C3+P18505+P78334+P47869+P31644+Q16445); assay: Binding affinity to GABA-A receptor (unknown origin); assay type: protein-complex assay
[12] = biological target: Histamine H2 receptor (Homo sapiens) (UniProt P25021); assay: Binding affinity to histamine H2 receptor (unknown origin)
[13] = biological target: Beta-3 adrenergic receptor (Homo sapiens) (UniProt P13945); assay: Binding affinity to beta3 adrenergic receptor (unknown origin)
Beta-3 adrenergic receptor (Homo sapiens), sequence (P13945 whole entry, looked up): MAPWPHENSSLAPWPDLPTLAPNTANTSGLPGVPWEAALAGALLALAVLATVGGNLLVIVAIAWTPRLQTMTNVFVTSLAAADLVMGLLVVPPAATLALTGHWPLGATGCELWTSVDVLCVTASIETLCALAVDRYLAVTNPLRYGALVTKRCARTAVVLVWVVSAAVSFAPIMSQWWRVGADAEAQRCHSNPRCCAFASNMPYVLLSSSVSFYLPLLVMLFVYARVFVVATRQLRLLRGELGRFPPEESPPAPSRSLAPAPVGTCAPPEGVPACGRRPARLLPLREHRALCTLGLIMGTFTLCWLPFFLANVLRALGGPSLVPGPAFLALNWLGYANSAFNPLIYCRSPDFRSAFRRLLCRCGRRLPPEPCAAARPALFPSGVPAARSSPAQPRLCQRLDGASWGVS

[14] = biological target: T1, Adenosine receptor A3 (Homo sapiens); assay: Positive allosteric modulation of human A3 adenosine receptor transfected in HEK293 cell membranes assessed as potentiation of MRS5698 induced inhibition of cAMP formation by measuring fold increase in agonist potency at 3 uM relative to control; assay type: functional; settings: Membrane, filed as positive allosteric modulator
[15] = biological target: T1, Adenosine receptor A3 (Homo sapiens); assay: Positive allosteric modulation of human A3 adenosine receptor transfected in HEK293 cell membranes assessed as potentiation of 5-(2-chloro-6-((3-iodobenzyl)amino)-9H-purin-9-yl)-3,4-dihydroxy-N-methyltetrahydrofuran-2-carboxamide induced [35S]GTP-gammaS binding by measuring maximal efficacy of agonist at 0.01 uM pretreated for 1 hr followed by agonist addition and measured after 2 hrs by liquid scintillation counting method (reference value: 100 +/- 3%); settings: Membrane, filed as positive allosteric modulator, time 3.0 hrs
[16] = biological target: Alpha-1A adrenergic receptor (Homo sapiens) (UniProt P35348); assay: Binding affinity to alpha1A adrenergic receptor (unknown origin)
Alpha-1A adrenergic receptor (Homo sapiens), sequence (P35348 whole entry): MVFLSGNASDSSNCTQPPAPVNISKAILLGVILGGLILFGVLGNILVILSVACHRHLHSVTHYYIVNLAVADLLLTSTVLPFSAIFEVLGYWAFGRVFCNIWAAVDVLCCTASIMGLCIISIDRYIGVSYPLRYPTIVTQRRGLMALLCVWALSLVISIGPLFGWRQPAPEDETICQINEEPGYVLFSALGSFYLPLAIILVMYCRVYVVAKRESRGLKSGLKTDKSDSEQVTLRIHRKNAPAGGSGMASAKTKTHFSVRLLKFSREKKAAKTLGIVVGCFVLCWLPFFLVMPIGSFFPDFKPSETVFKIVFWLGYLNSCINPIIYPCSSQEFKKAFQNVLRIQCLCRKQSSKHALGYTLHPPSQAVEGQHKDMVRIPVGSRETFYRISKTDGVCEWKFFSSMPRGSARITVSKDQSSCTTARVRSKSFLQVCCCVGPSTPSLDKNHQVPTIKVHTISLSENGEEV

[17] = biological target: T2, Adenosine receptor A3 (Mus musculus) (UniProt Q61618); assay: Positive allosteric modulation of full length mouse A3 adenosine receptor transfected in HEK293 cell membranes assessed as reduction in [125I]I-AB-MECA dissociation rate at 0.1 uM preincubated with radioligand for 3 hrs followed by NECA and compound addition and measured upto 180 mins by gamma counter method; settings: Membrane
T2 sequence (whole entry): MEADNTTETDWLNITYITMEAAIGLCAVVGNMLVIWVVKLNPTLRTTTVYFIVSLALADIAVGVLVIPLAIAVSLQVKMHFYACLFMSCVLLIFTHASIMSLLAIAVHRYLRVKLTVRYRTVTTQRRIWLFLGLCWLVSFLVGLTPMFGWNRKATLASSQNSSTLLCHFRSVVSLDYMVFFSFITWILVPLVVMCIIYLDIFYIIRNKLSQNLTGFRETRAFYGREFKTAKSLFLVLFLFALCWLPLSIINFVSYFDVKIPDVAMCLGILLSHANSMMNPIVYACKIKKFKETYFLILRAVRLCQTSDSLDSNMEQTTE

[18] = biological target: T2, Adenosine receptor A3 (Mus musculus); assay: Orthosteric antagonist activity at full length mouse A3 adenosine receptor transfected in HEK293 cell membranes assessed as inhibition of [125I]I-AB-MECA binding at equilibrium at 10 uM by gamma counter method; settings: Membrane, filed as antagonist
Homo sapiens = species: Homo sapiens; assay: Binding affinity to BZP receptor (unknown origin)
[19] = biological target: Delta-type opioid receptor (Homo sapiens) (UniProt P41143); assay: Binding affinity to DOR (unknown origin)
Delta-type opioid receptor (Homo sapiens), sequence (P41143 whole entry): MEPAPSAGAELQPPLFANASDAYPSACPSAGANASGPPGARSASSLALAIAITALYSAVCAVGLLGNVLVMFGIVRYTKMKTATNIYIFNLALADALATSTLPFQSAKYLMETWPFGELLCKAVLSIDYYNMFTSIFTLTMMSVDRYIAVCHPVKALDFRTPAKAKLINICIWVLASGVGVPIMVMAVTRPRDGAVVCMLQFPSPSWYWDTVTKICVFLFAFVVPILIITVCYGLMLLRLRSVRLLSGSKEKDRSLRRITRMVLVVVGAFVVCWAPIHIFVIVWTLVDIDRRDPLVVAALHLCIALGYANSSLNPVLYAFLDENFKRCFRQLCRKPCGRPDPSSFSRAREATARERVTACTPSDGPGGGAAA

[20] = biological target: T1, Adenosine receptor A3 (Homo sapiens); assay: Positive allosteric modulation of human A3 adenosine receptor transfected in HEK293 cell membranes assessed as potentiation of MRS5698 induced inhibition of cAMP formation by measuring maximal efficacy of agonist at 3 uM (reference value: 100%); assay type: functional; settings: Membrane, filed as positive allosteric modulator
[21] = biological target: D(2) dopamine receptor (Homo sapiens) (UniProt P14416); assay: Binding affinity to D2 receptor (unknown origin)
D(2) dopamine receptor (Homo sapiens), sequence (P14416 whole entry): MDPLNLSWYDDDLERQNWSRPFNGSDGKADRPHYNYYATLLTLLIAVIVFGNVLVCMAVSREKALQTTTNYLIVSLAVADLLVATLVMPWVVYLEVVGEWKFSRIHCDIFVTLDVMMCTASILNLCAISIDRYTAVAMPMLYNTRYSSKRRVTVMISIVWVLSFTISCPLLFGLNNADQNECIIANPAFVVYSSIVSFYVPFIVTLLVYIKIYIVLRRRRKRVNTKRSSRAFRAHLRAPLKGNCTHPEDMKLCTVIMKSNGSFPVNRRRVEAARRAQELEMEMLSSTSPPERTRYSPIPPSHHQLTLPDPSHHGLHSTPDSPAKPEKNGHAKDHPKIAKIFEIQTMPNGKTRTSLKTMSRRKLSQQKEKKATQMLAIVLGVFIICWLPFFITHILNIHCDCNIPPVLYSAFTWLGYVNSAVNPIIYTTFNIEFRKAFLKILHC

[22] = biological target: T2, Adenosine receptor A3 (Mus musculus); assay: Positive allosteric modulation of full length mouse A3 adenosine receptor transfected in HEK293 cell membranes assessed as reduction in [125I]I-AB-MECA dissociation rate at 1 to 10 uM preincubated with radioligand for 3 hrs followed by NECA and compound addition and measured upto 180 mins by gamma counter method; settings: Membrane, filed as positive allosteric modulator, dose 1-10 µM
[23] = biological target: T1, Adenosine receptor A3 (Homo sapiens); assay: Positive allosteric modulation of human A3 adenosine receptor transfected in HEK293 cell membranes assessed as potentiation of 5-(2-chloro-6-((3-iodobenzyl)amino)-9H-purin-9-yl)-3,4-dihydroxy-N-methyltetrahydrofuran-2-carboxamide induced [35S]GTP-gammaS binding by measuring maximal efficacy of agonist at 0.001 uM pretreated for 1 hr followed by agonist addition and measured after 2 hrs by liquid scintillation counting method (reference value: 100 +/- 3%); settings: Membrane, filed as positive allosteric modulator, time 3.0 hrs
[24] = biological target: Muscarinic acetylcholine receptor M4 (Homo sapiens) (UniProt P08173); assay: Binding affinity to M4 receptor (unknown origin)
Muscarinic acetylcholine receptor M4 (Homo sapiens), sequence (P08173 whole entry): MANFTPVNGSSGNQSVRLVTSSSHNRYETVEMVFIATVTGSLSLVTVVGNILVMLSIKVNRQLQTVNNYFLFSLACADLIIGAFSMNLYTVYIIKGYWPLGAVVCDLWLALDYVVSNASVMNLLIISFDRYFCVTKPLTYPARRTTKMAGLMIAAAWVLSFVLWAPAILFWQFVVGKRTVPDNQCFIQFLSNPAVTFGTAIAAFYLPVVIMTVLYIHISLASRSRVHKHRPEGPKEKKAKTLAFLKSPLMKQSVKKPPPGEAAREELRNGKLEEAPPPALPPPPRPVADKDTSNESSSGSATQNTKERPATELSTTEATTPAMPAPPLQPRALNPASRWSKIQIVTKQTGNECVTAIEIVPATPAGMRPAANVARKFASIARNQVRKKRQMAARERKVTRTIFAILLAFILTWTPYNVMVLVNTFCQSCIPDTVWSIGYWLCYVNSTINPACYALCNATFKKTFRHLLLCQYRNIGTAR

[25] = biological target: D(1A) dopamine receptor (Homo sapiens) (UniProt P21728); assay: Binding affinity to D1 receptor (unknown origin)
D(1A) dopamine receptor (Homo sapiens), sequence (P21728 whole entry): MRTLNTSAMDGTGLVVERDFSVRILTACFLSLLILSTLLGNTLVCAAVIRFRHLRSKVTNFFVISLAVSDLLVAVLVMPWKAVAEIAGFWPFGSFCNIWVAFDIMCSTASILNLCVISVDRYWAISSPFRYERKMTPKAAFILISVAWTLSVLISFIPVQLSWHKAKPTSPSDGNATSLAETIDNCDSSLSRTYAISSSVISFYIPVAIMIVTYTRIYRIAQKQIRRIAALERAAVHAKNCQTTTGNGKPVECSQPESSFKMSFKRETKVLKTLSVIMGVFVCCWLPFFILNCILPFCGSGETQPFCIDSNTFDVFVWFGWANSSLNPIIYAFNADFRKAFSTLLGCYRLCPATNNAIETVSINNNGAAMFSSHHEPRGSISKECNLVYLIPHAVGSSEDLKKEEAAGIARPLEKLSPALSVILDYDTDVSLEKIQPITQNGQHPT

[26] = biological target: Muscarinic acetylcholine receptor M2 (Homo sapiens) (UniProt P08172); assay: Binding affinity to M2 receptor (unknown origin)
Muscarinic acetylcholine receptor M2 (Homo sapiens), sequence (P08172 whole entry): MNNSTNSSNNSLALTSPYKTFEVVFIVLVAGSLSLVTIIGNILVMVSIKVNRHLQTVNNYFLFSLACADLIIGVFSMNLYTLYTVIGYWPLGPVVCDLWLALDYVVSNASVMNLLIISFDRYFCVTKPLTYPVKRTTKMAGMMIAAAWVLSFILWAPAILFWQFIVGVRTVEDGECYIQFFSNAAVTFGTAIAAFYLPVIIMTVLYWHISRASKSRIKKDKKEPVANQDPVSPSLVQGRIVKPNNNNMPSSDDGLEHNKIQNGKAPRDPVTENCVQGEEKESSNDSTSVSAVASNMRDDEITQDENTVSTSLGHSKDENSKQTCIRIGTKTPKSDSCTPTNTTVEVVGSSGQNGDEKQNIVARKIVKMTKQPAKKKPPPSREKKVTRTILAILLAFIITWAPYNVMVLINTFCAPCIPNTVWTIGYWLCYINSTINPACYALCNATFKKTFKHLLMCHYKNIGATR

[27] = biological target: Mu-type opioid receptor (Homo sapiens) (UniProt P35372); assay: Binding affinity to MOR (unknown origin)
Mu-type opioid receptor (Homo sapiens), sequence (P35372 whole entry): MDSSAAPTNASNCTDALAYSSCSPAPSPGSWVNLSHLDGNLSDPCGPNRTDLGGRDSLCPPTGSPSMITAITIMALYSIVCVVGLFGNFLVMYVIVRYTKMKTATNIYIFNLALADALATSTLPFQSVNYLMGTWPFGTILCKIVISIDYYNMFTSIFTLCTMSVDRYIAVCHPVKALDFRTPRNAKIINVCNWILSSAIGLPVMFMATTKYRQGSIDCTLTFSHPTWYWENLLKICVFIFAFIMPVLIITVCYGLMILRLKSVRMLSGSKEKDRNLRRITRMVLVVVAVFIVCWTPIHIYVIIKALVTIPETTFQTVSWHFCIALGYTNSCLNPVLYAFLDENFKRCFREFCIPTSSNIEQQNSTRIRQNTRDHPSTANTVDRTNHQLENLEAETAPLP

[28] = biological target: T1, Adenosine receptor A3 (Homo sapiens); assay: Positive allosteric modulation of human A3 adenosine receptor transfected in HEK293 cell membranes assessed as potentiation of MRS5698 induced ERK activation at 3 uM; settings: Membrane
[29] = biological target: T1, Adenosine receptor A3 (Homo sapiens); assay: Positive allosteric modulation of human A3 adenosine receptor transfected in HEK293 cell membranes assessed as potentiation of NECA induced ERK activation at 3 uM; settings: Membrane

Kappa-type opioid receptor (Homo sapiens), sequence (P41145 whole entry): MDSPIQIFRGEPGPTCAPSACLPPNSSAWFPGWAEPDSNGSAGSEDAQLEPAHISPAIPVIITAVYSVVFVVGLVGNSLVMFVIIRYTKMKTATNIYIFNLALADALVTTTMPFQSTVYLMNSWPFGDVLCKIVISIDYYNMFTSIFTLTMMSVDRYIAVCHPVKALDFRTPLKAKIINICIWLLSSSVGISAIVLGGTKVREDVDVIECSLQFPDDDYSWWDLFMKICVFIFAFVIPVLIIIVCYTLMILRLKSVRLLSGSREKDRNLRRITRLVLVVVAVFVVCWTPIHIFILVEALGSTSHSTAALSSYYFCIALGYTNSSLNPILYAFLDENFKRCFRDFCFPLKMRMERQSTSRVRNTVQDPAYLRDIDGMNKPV

CCCC(CCC)c1nc2c(Nc3ccc(C#CCCCCCCCCN)cc3)nc3ccccc3c2[nH]1
Activity [1]: inactive
Activity [2]: inactive
Activity [3]: Active
Activity [4]: inactive
fold change (FC) [5]: 4
Activity [6]: inactive
Activity [7]: inactive
Activity [8]: inactive
Activity [9]: inactive
Activity [10]: inactive
Activity [11]: inactive
Activity [12]: inactive
Activity [13]: inactive
fold change (FC) [14]: 9
Emax [15]: 157%
Activity [16]: inactive
Activity [17]: inactive
Activity [18]: Active
Activity (Homo sapiens): inactive
Activity [19]: inactive
Emax [20]: 117%
Activity [21]: inactive
Activity [22]: Active
Emax [23]: 112%
Activity [24]: inactive
Activity [25]: inactive
Activity [26]: inactive
Activity [27]: inactive
Activity [28]: inactive
Activity [29]: inactive
